In patent publication US20110305637A1, “RADIOLABELLED PDE10 LIGANDS” (Janssen Pharmaceutica N.V., priority 2009, published 2011):

Experiments:
rat PDE10A2 = molecular target: T1, rat PDE10A2 (Rattus norvegicus, UniProt Q9QYJ6); assay: rat PDE10A2-cAMP inhibition; format: biochemical; details: read-out: pIC50, rat PDE10A2-cAMP inhibition (converted)
T1 sequence (Q9QYJ6 1-794): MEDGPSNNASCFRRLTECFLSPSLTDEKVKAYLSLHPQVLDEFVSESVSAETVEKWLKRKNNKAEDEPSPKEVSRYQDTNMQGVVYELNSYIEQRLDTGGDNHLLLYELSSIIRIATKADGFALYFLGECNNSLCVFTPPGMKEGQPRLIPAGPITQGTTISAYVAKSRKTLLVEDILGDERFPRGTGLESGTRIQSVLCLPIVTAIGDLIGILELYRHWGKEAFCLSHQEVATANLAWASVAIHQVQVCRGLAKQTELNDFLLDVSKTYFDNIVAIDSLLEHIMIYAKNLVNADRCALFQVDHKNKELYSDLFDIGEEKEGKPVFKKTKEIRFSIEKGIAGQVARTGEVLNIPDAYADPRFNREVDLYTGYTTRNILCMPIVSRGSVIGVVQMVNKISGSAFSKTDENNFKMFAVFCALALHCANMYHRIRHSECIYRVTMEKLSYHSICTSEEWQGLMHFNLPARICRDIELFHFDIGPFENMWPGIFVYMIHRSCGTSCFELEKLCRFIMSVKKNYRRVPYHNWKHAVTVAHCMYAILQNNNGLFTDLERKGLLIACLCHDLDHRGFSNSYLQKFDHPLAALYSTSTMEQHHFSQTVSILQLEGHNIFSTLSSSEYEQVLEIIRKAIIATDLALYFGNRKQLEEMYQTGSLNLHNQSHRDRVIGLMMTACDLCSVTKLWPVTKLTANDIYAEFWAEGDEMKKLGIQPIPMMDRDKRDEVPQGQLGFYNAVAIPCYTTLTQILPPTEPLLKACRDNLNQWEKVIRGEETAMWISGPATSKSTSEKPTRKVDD
Protocol: The affinity of compounds Ia and Ib was determined by measuring rat PDE10A2-cAMP inhibition: […]

PDE8A1 = PDE8A1 (Homo sapiens, UniProt O60658); assay: selectivity over PDE8A1; format: biochemical
PDE8A1, sequence (O60658 whole entry, species assumed): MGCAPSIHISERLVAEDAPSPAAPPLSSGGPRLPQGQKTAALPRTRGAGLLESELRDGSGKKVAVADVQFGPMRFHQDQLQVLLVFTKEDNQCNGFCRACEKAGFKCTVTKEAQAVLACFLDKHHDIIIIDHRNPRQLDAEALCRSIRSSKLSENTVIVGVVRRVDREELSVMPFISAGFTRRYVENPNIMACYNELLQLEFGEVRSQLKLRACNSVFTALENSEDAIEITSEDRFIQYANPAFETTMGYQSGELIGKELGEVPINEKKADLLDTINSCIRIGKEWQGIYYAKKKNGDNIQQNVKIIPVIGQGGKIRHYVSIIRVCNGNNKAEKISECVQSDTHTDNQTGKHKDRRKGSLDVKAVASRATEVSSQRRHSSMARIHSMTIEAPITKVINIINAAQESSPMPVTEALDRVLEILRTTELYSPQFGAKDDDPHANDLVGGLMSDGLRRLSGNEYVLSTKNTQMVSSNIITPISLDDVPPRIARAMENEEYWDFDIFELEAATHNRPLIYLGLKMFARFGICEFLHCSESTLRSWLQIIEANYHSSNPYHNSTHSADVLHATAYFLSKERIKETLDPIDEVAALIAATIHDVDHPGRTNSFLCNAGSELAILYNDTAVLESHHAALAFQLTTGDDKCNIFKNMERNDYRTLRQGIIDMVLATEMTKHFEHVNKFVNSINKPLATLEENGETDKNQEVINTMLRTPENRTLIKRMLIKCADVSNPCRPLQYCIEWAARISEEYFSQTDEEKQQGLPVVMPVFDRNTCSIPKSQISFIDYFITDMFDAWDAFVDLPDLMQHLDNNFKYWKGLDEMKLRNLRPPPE

IC50 (rat PDE10A2) [nM] | selective over PDE8A1 (PDE8A1) [fold] | melting point [°C] | Structure (SMILES)
0.692 | > 200 | 101.9 | FCCCn1cc(-c2ccncc2)c(-c2ccc(OCc3ccc4ccccc4n3)cc2)n1 [Ib, 2-{4-[1-(3-Fluoropropyl)-4-pyridin-4-yl-1H-1-pyrazol-3-yl]-phenoxymethyl}-quinoline]
0.479 | – | – | FCCn1cc(-c2ccncc2)c(-c2ccc(OCc3ccc4ccccc4n3)cc2)n1 [Ia, 2-{4-[1-(2-Fluoroethyl)-4-pyridin-4-yl-1H-1-pyrazol-3-yl]-phenoxymethyl}-quinoline]
